The source of these data is publication PMC3608462 (Biochemistry, 2011).

For one assay, the target named is CPAF (Chlamydia trachomatis serovar D, UniProt O84866). In kind it is biochemical.
Assay [1] deals with C. trachomatis LGV-L2 434-infected HeLa cells. The settings on record: C. trachomatis LGV-L2 434-infected HeLa cells treated with lactacystin; cited from earlier work.

Residues, ends and D or L forms follow the SMILES beside them.

Chain of CPAF (O84866 276-601): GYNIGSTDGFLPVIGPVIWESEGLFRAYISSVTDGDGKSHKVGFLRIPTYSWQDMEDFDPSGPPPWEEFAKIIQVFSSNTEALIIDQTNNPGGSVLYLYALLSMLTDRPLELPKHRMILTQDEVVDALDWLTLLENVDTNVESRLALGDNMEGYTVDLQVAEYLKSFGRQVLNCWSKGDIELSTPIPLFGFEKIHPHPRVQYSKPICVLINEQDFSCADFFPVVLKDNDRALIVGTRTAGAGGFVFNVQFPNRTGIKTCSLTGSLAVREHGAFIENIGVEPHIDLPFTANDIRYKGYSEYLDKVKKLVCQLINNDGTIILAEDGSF
Chain of CPAF (O84866 1-234): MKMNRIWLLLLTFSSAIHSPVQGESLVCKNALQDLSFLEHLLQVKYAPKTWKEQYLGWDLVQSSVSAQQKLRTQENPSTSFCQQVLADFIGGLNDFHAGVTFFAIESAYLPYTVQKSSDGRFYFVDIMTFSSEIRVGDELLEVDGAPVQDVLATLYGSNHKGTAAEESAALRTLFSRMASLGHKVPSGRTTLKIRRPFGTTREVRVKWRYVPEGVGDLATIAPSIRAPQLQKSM

Regarding `CSCC[C@H](NC(=O)[C@@H]1CCCN1C(=O)[C@H](CO)NC(=O)[C@H](Cc1ccc(O)cc1)NC(=O)[C@H](Cc1ccccc1)NC(=O)[C@H](CC(C)C)NC(=O)[C@@H](N)CO)C(=O)N[C@H](C(=O)N1CCC[C@H]1C(=O)N[C@@H](Cc1c[nH]cn1)C(=O)N[C@@H](Cc1ccccc1)C(=O)N[C@@H](Cc1c[nH]c2ccccc12)C(=O)N[C@@H](C)C(=O)N[C@@H](CCC(=O)O)C(=O)N[C@@H](CC(C)C)C(=O)N[C@@H](CCCNC(=N)N)C(=O)N[C@@H](CC(N)=O)C(=O)N[C@@H](Cc1c[nH]cn1)C(=O)N[C@@H](Cc1ccc(O)cc1)C(=O)N[C@@H](C)C(=O)N[C@H](C(=O)N[C@@H](CO)C(=O)NCC(=O)N[C@@H](CC(C)C)C(=O)N[C@@H](CCCCN)C(=O)N[C@@H](CCCNC(=N)N)C(=O)N[C@@H](CCCNC(=N)N)C(=O)N[C@@H](CCCNC(=N)N)C(=O)N[C@@H](CCCNC(=N)N)C(=O)N[C@@H](CCCNC(=N)N)C(=O)N[C@@H](CCCNC(=N)N)C(=O)N[C@@H](CCCNC(=N)N)C(=O)N[C@@H](CCCNC(=N)N)C(=O)N[C@@H](CCCNC(=N)N)C(N)=O)[C@@H](C)O)C(C)C` [peptide 4] (H-SLFYSPMVPHFWAELRNHYATSGLKRRRRRRRRR-NH2), at CPAF (ratio of CPAF IC50 values), the “potency relative to inhibitor 3 (fold better)” value is approximately 30 fold and the “potency relative to lactacystin (fold more potent)” value is approximately 200 fold.
Consider `CSCC[C@H](NC(=O)[C@@H]1CCCN1C(=O)[C@H](CO)NC(=O)[C@H](Cc1ccc(O)cc1)NC(=O)[C@H](Cc1ccccc1)NC(=O)[C@H](CC(C)C)NC(=O)[C@@H](N)CO)C(=O)N[C@H](C(=O)N1CCC[C@H]1C(=O)N[C@@H](Cc1c[nH]cn1)C(=O)N[C@@H](Cc1ccccc1)C(=O)N[C@@H](Cc1c[nH]c2ccccc12)C(=O)N[C@@H](C)C(=O)N[C@@H](CCC(=O)O)C(=O)N[C@@H](CC(C)C)C(=O)N[C@@H](CCCNC(=N)N)C(=O)N[C@@H](CC(N)=O)C(=O)N[C@@H](Cc1c[nH]cn1)C(=O)N[C@@H](Cc1ccc(O)cc1)C(=O)N[C@@H](C)C(=O)N[C@H](C(=O)N[C@@H](CO)C(=O)NCC(=O)N[C@@H](CC(C)C)C(=O)N[C@@H](CCCCN)C(N)=O)[C@@H](C)O)C(C)C` [peptide 3] (H-SLFYSPMVPHFWAELRNHYATSGLK-NH2), for which the “potency relative to lactacystin (fold more potent)” value at CPAF (ratio of CPAF IC50 values) is on record as 6 fold.
Regarding `CC(=O)N[C@@H](CSC(=O)[C@]1([C@@H](O)C(C)C)NC(=O)[C@H](C)[C@@H]1O)C(=O)O` [lactacystin], in assay [1], the “effect on vimentin in infected HeLa cells” value is on record as “fiber oligermerization of vimentin”.
Regarding “H-NFALSHFRLPLSTYKEMPYVSHWAGRRRRRRRRR-NH2 [peptide 5]”, the “CPAF inhibitory activity in vitro” value at CPAF (in vitro) is on record as “no CPAF inhibitory activity”.
